We go through three substances from paper PMC8131206 (Nature biomedical engineering, 2021).

One assay concerns P. aeruginosa PAO1. Particulars: PAO1, 24 h.
The next assay has as its system S. enterica CDC 6516–60. Particulars: CDC 6516–60, 24 h.
In the next assay the test system is E. coli DH5α. Particulars: 24 h.
For another assay, the system named is S. aureus (MS) Newman. Particulars: 24 h.
The subject of another assay is S. aureus (MS) NRS72. Particulars: MS) NRS72, 24 h.
Another assay has as its system K. pneumoniae NCTC 9633. To be noted: NCTC 9633, 24 h.
Another assay has as its system M. smegmatis Mc^2 155. To be noted: Mc^2 155, 48 h.
The next assay has as its system S. mitis NCTC 12261. Particulars: NCTC 12261, 24 h.
In another assay the test system is A. baumannii 2208. To be noted: 2208, 24 h.
The test system of the next assay is H. influenzae TD-4. Particulars: TD-4, 24 h.
The test system of assay [1] is M. tuberculosis H37Ra (attenuated). Particulars: 96 h.
The test system of another assay is S. aureus (MR) USA300. Particulars: USA300, 24 h.
The subject of the next assay is E. faecalis ATCC 29212. To be noted: ATCC 29212, 24 h.

Where no end group is shown, it is not given here. Bounds are passed on as bounds.

Consider KRWWKWWRR-NH2 [AMP2], for which the MIC against P. aeruginosa PAO1 is 20 µM; in the assay on S. enterica CDC 6516–60, 80 µM; against E. coli DH5α, 80 µM; in the assay with S. aureus (MS) Newman it was 40 µM; with S. aureus (MS) NRS72, 80 µM; against K. pneumoniae NCTC 9633, 20 µM. Also, the MIC with M. smegmatis Mc^2 155 is given as 20 µM; in the assay on S. mitis NCTC 12261, above 80 µM; in the assay on A. baumannii 2208, 80 µM; against H. influenzae TD-4, 80 µM; in assay [1] it was 10 µM; in the assay on S. aureus (MR) USA300, 80 µM. In addition, the MIC against E. faecalis ATCC 29212 is recorded as above 80 µM.

Consider WKWLKKWIK-NH2 [AMP1], for which the MIC in the assay with P. aeruginosa PAO1 is recorded as 10 µM; in the assay with S. enterica CDC 6516–60, 40 µM; against E. coli DH5α it was above 80 µM; against S. aureus (MS) Newman, 80 µM; with S. aureus (MS) NRS72, above 80 µM; in the assay on K. pneumoniae NCTC 9633, 20 µM. In addition, the MIC against M. smegmatis Mc^2 155 is recorded as 20 µM; in the assay with S. mitis NCTC 12261, 20 µM; in the assay on A. baumannii 2208 it was 25 µM; in the assay on H. influenzae TD-4, 80 µM; in [1], 20 µM; against S. aureus (MR) USA300, above 80 µM. Besides, in the assay on E. faecalis ATCC 29212, the MIC turned out to be 80 µM.

For RRWWRWVVW-NH2 [AMP3], the MIC against P. aeruginosa PAO1 was 80 µM; against S. enterica CDC 6516–60, 80 µM; with E. coli DH5α, above 80 µM; with S. aureus (MS) Newman, 20 µM; with S. aureus (MS) NRS72, 20 µM; against K. pneumoniae NCTC 9633, 2.5 µM. Further, the MIC is given as 20 µM in the assay on M. smegmatis Mc^2 155; 10 µM against A. baumannii 2208; 20 µM in assay [1]; 20 µM with S. aureus (MR) USA300; 80 µM in the assay with E. faecalis ATCC 29212.
